Each structure is given as a SMILES string. pIC50: −log10 of the molar value. Structures can show the parent of a compound that is named as a salt.

Sequence of LsrK (Q8ZKQ6 whole entry): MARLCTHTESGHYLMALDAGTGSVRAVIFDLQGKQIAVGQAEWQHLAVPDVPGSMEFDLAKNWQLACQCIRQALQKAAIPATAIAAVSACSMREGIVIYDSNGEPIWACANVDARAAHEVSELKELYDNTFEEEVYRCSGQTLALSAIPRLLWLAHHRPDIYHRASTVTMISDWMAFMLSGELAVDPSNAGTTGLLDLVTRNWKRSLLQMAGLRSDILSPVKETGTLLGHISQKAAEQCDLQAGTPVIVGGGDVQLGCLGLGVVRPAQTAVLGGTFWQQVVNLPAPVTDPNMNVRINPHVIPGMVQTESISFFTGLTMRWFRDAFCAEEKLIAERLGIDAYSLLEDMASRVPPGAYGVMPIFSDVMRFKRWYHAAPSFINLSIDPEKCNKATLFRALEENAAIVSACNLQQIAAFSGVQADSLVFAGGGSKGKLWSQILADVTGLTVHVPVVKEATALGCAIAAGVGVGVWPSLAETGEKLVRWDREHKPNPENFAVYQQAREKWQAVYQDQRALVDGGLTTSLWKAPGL

The first assay has as its target LsrK (Salmonella typhimurium, UniProt Q8ZKQ6). As to the kind of experiment: biochemical. The class given is biochemical, S. typhimurium.
Conditions: not given
On to `CN(C)CCC[C@@]1(c2ccc(F)cc2)OCc2cc(C#N)ccc21` [ESCITALOPRAM OXALATE], for which the inhibition at 50 µM was found to be 1%.

In the case of `C[C@]12CC[C@@H]3c4ccc(O)cc4CC[C@H]3[C@@H]1CC[C@@H]2OC(=O)CCC1CCCC1` [ESTRADIOL CYPIONATE], the inhibition at 50 µM turned out to be 0%.

In the case of `COc1ccc2c(c1)CC[C@@H]1[C@@H]2CC[C@]2(C)[C@@H](O)CC[C@@H]12` [ESTRADIOL METHYL ETHER], the inhibition at 50 µM is 3%.

For `CCCCC(=O)O[C@H]1CC[C@H]2[C@@H]3CCc4cc(O)ccc4[C@H]3CC[C@]12C` [ESTRADIOL VALERATE], the inhibition at 50 µM came to 3%.

Consider `CCOc1ccc2nc3cc(N)ccc3c(N)c2c1` [ETHACRIDINE LACTATE], for which the inhibition at 50 µM was 1%.

Regarding `C=C(CC)C(=O)c1ccc(OCC(=O)O)c(Cl)c1Cl` [ETHACRYNIC ACID], the inhibition at 50 µM was 85%.

As for `C#C[C@]1(O)CC[C@H]2[C@@H]3CCc4cc(O)ccc4[C@H]3CC[C@@]21C` [ETHINYL ESTRADIOL], the inhibition at 50 µM is 1%.

For the molecule `CCC1(C)CC(=O)NC1=O` (centres unmarked) [ETHOSUXIMIDE], the inhibition at 50 µM came out at 17%.

Turning to `CCC(N)C(O)c1ccc(O)c(O)c1` (centres unmarked) [ETHYLNOREPINEPHRINE HYDROCHLORIDE], the inhibition at 50 µM was 4%.

For the molecule `CCOC(=O)c1cncn1[C@H](C)c1ccccc1` [ETOMIDATE], the inhibition at 50 µM amounted to 2%.

`COc1cc([C@@H]2c3cc4c(cc3[C@@H](O[C@@H]3O[C@@H]5CO[C@@H](C)O[C@H]5[C@H](O)[C@H]3O)[C@H]3COC(=O)[C@H]23)OCO4)cc(OC)c1O` [ETOPOSIDE]: the inhibition at 50 µM was found to be 1%.

Turning to `C=C1C[C@@H]2[C@H](CC[C@]3(C)C(=O)CC[C@@H]23)[C@@]2(C)C=CC(=O)C=C12` [EXEMESTANE], the inhibition at 50 µM was determined as 11%.

On to `O=C(O)CCC(=O)c1ccc(-c2ccccc2)cc1` [FENBUFEN], for which the inhibition at 50 µM worked out at 2%.

On to `CC(NCCC(c1ccccc1)c1ccccc1)c1ccccc1` (centres unmarked) [FENDILINE HYDROCHLORIDE], for which the inhibition at 50 µM stood at 0%.

Take `CC(C)OC(=O)C(C)(C)Oc1ccc(C(=O)c2ccc(Cl)cc2)cc1` [FENOFIBRATE]: the inhibition at 50 µM worked out at 1%.

For the molecule `CC(C)(C(=O)O)c1ccc(C(O)CCCN2CCC(C(O)(c3ccccc3)c3ccccc3)CC2)cc1` (centres unmarked) [FEXOFENADINE HYDROCHLORIDE], the inhibition at 50 µM is 0%.

`CC(C)(C)NC(=O)[C@H]1CC[C@H]2[C@@H]3CC[C@H]4NC(=O)C=C[C@]4(C)[C@H]3CC[C@]12C` [FINASTERIDE]: the inhibition at 50 µM was 1%.

`O=c1c(O)c(-c2ccc(O)c(O)c2)oc2cc(O)ccc12` [FISETIN]: the inhibition at 50 µM is 33%.

For the molecule `CS(=O)(=O)c1ccc([C@@H](O)[C@@H](CF)NC(=O)C(Cl)Cl)cc1` [FLORFENICOL], the inhibition at 50 µM turned out to be 2%.

With `O=c1[nH]c(=O)n([C@H]2C[C@H](O)[C@@H](CO)O2)cc1F` [FLOXURIDINE], the inhibition at 50 µM was 0%.

As to `Nc1[nH]c(=O)ncc1F` [FLUCYTOSINE], the inhibition at 50 µM was determined as 0%.

With `Nc1nc(F)nc2c1ncn2[C@@H]1O[C@H](COP(=O)(O)O)[C@@H](O)[C@@H]1O` [FLUDARABINE PHOSPHATE], the inhibition at 50 µM is 0%.

On to `CC(=O)OCC(=O)[C@@]1(O)CC[C@H]2[C@@H]3CCC4=CC(=O)CC[C@]4(C)[C@@]3(F)[C@@H](O)C[C@@]21C` [FLUDROCORTISONE ACETATE], for which the inhibition at 50 µM worked out at 2%.

Consider `O=C(O)c1ccccc1Nc1cccc(C(F)(F)F)c1` [FLUFENAMIC ACID], for which the inhibition at 50 µM stood at 62%.

Regarding `CC(=O)OCC(=O)[C@@]12OC(C)(C)O[C@@H]1C[C@H]1[C@@H]3C[C@H](F)C4=CC(=O)C=C[C@]4(C)[C@@]3(F)[C@@H](O)C[C@@]12C` [FLUOCINONIDE], the inhibition at 50 µM is 3%.

For `O=C1OC2(c3ccc(O)cc3Oc3cc(O)ccc32)c2ccccc21` [FLUORESCEIN], the inhibition at 50 µM is 1%.

On to `O=c1[nH]cc(F)c(=O)[nH]1` [FLUOROURACIL], for which the inhibition at 50 µM turned out to be 0%.

With `CC(C)C(=O)Nc1ccc([N+](=O)[O-])c(C(F)(F)F)c1` [FLUTAMIDE], the inhibition at 50 µM worked out at 2%.

As to `CC(C)n1c(/C=C/C(O)CC(O)CC(=O)O)c(-c2ccc(F)cc2)c2ccccc21` (centres unmarked) [FLUVASTATIN], the inhibition at 50 µM was 6%.

For `Nc1nc(=O)c2nc(CNc3ccc(C(=O)N[C@@H](CCC(=O)O)C(=O)O)cc3)cnc2[nH]1` [FOLIC ACID], the inhibition at 50 µM is 90%.

Consider `O=C(O)P(=O)(O)O` [FOSCARNET SODIUM], for which the inhibition at 50 µM was found to be 1%.

Take `C[C@@H]1O[C@@H]1P(=O)(O)O` [FOSFOMYCIN CALCIUM]: the inhibition at 50 µM was 1%.

As for `O=C(O)c1ccccc1OP(=O)(O)O` [FOSFOSAL], the inhibition at 50 µM is 0%.

Consider `COc1cc2ccc(=O)oc2c(OC)c1OC` [FRAXIDIN METHYL ETHER], for which the inhibition at 50 µM was found to be 1%.

For the molecule `C[C@H]1C(=O)CC[C@@H]2[C@]1(C)CC[C@H]1[C@@]2(C)CC[C@@]2(C)[C@@H]3CC(C)(C)CC[C@]3(C)CC[C@]12C` [FRIEDELIN], the inhibition at 50 µM worked out at 1%.

In the case of `Cc1cccc(C)c1NC(=O)c1ccccc1C(=O)O` [FTAXILIDE], the inhibition at 50 µM came out at 4%.

On to `Cc1cc(O)c(C=O)c2c1C(=O)Oc1c(COC(=O)/C=C/C(=O)O)c(O)c(C(=O)O)c(C)c1O2` [FUMARPRO[…]], for which the pIC50 is 5.15 and the inhibition at 50 µM came to 150%.

Take `O=C1OC(CN2CCOCC2)CN1/N=C/c1ccc([N+](=O)[O-])o1` (centres unmarked) [FURALTADONE]: the inhibition at 50 µM amounted to 2%.

Take `CC[N+](CC)(CC)CCOc1cccc(OCC[N+](CC)(CC)CC)c1OCC[N+](CC)(CC)CC` [GALLAMINE TRIETHIODIDE]: the inhibition at 50 µM turned out to be 1%.

As to `CC(=O)O[C@@H]1C[C@H]2C(C)(C)C(=O)C=C[C@]2(C)[C@H]2CC[C@@]3(C)[C@H](c4ccoc4)OC(=O)[C@H]4O[C@]43[C@@]21C` [GEDUNIN], the inhibition at 50 µM came to 0%.

In the case of `CO/N=C1\CN(c2nc3c(cc2F)c(=O)c(C(=O)O)cn3C2CC2)CC1CN` (centres unmarked) [GEMIFLOXACIN MESYLATE], the inhibition at 50 µM came to 0%.

Take `O=c1c(-c2ccc(O)cc2)coc2cc(O)cc(O)c12` [GENISTEIN]: the inhibition at 50 µM was determined as 2%.

The assay is the same for the next values; noted with them: 50 µM.
In the case of `C[C@]12CCC3c4ccc(OS(=O)(=O)[O-])cc4CCC3C1CC[C@H]2O.[Na+]` (some centres unmarked) [ESTRADIOL-3-SULFATE. SODIUM SALT], the “Inhibition (%)” value amounted to 0.

Regarding `CCc1cc(Cl)c(OC)c(C(=O)NC[C@@H]2CCCN2CC)c1O.Cl` [ETICLOPRIDE HYDROCHLORIDE], the “Inhibition (%)” value is given as 2.

Turning to `CC(=O)O[C@H]1CCC2(C)C3=C(CCC2C1(C)C)[C@@]1(C)CC[C@@H](C(C)CCC=C(C)C)[C@]1(C)CC3` (some centres unmarked) [EUPHOL ACETATE], the “Inhibition (%)” value came to 1.

Consider `CC(=O)O[C@H]1[C@H]2[C@@H](OC(=O)Cc3ccccc3)[C@@H](C)C[C@]2(OC(C)=O)C(=O)/C(C)=C/[C@@H]2[C@H](CC[C@@]13CO3)C2(C)C` [EUPHORBIASTEROID], for which the “Inhibition (%)” value was 1.

As to `CC[C@H](CC[C@@H](C)[C@H]1CC[C@H]2[C@@H]3CC[C@H]4C[C@@H](O)CC[C@]4(C)[C@H]3CC[C@]12C)C(C)C` [FUCOSTANOL], the “Inhibition (%)” value was 1.

Take `CCOC(=O)c1ncn2c1CN(C)C(=O)c1cc(F)ccc1-2` [FUMAZENIL]: the “Inhibition (%)” value stood at 0.

On to `Cl.O=c1[nH]oc2c1CCNC2` [GABOXADOL HYDROCHLORIDE], for which the “Inhibition (%)” value was 1.

The record behind these values is paper PMC6627609, “Targeting Quorum Sensing: High-Throughput Screening to Identify Novel LsrK Inhibitors” (International Journal of Molecular Sciences, 2019).
